This note sets out measurements from patent US11897851B2, “Heterocyclic GLP-1 agonists” (Gasherbrum Bio, Inc., priority 2021, dated 2024).

This test deals with T1, GLP-1 Receptor (Homo sapiens, UniProt P43220).
T1 construct: host or cells: HEK293/GLP1R/CRE-LUC (HEK293/CRE-Luc stably expressing the GLP-1 receptor)
Description: GLP-1R agonist cAMP stimulation assay (HEK293/GLP1R/CRE-LUC cells, Cisbio cAMP dynamic 2 kit).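 Further: compounds tested in half-log serial dilution, cAMP detected with cAMP-d2 and anti-cAMP cryptate antibody reagents after 1 h at room temperature.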 The conditions noted are these: HEK293/CRE-Luc cell line stably expressing the GLP-1 Receptor; 1000 cells/well; 30 min at 37° C.; 0.5 mM IBMX, 0.1% BSA; read-out: GLP1R cAMP Stimulation DR: EC50. The format is cell-based.

Structures are written as SMILES.

T1 sequence (P43220 24-463, species assumed): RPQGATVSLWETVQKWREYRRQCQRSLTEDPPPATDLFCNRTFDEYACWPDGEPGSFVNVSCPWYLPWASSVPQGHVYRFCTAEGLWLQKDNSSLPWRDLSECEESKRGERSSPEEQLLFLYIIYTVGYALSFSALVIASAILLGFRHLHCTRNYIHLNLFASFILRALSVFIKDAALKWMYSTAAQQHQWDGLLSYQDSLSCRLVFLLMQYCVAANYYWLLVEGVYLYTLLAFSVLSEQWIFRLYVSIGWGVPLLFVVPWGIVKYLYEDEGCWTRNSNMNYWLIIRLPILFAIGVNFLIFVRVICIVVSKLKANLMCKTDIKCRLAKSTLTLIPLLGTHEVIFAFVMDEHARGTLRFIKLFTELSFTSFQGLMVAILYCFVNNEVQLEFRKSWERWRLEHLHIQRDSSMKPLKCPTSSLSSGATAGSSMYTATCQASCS

Regarding `C/C(=C\c1cnc(CN2CCC(c3cccc4c3O[C@@](C)(c3ccc(Cl)cc3F)O4)CC2)n1C[C@@H]1CCO1)C(=O)O` (single isomer, unassigned) [Compound 131a], the 50% effective concentration (EC50) came to 0.099 nM.

For `C/C(=C\c1cnc(CN2CCC(c3cccc4c3O[C@](C)(c3ccc(Cl)cc3F)O4)CC2)n1C[C@@H]1CCO1)C(=O)O` (single isomer, unassigned) [Compound 131b], the half-maximal effective concentration (EC50) was determined as 8.7 nM.

For the molecule `CC1(C)C[C@@H](Cn2c(/C=C/C(=O)O)cnc2CN2CCC(c3cccc4c3OC(C)(c3ccc(Cl)cc3F)O4)CC2)CO1` (single isomer, unassigned) [Compound 171a], the EC50 turned out to be 10 nM.

Turning to `C[C@]1(c2ccc(Cl)cc2F)Oc2cccc(C3CCN(Cc4ncc(/C=C/C(=O)O)n4C[C@@H]4CCS4(=O)=O)CC3)c2O1` (single isomer, unassigned) [Compound 173a], the concentration giving a half-maximal response (EC50) is 0.0069 nM.

Turning to `C[C@]1(c2ccc(Cl)cc2F)Oc2cccc(C3CCN(Cc4ncc(/C=C/C(=O)O)n4C[C@H]4CCS4(=O)=O)CC3)c2O1` (single isomer, unassigned) [Compound 173b], the EC50 was determined as 0.0014 nM.

As for `Cn1c(C(=O)O)cnc1CN1CCC(c2cccc(OCc3ccc(Cl)cc3F)n2)CC1` [Compound 101, 2-((4-(6-((4-chloro-2-fluorobenzyl)oxy)pyridin-2-yl)piperidin-1-yl)methyl)-1-methyl-1H-imidazole-5-carboxylic acid], the concentration for a half-maximal effect (EC50) was found to be 227 nM.

In the case of `O=C(O)CCc1cnc(CN2CCC(c3cccc(OCc4ccc(Cl)cc4F)n3)CC2)n1C[C@@H]1CCO1` [Compound 102a, (S)-3-(2-((4-(6-((4-chloro-2-fluorobenzyl)oxy)pyridin-2-yl)piperidin-1-yl)methyl)-1-(oxetan-2-ylmethyl)-1H-imidazol-5-yl)propanoic acid], the EC50 was 1.6 nM.

As to `O=C(O)/C=C/c1cnc(CN2CCC(c3cccc(OCc4ccc(Cl)cc4F)n3)CC2)n1C[C@@H]1CCO1` [Compound 103a, (S,E)-3-(2-((4-(6-((4-chloro-2-fluorobenzyl)oxy)pyridin-2-yl)piperidin-1-yl)methyl)-1-(oxetan-2-ylmethyl)-1H-imidazol-5-yl)acrylic acid], the half-maximal effective concentration (EC50) was found to be 0.093 nM.

As for `Cn1c(/C=C/C(=O)O)cnc1CN1CCC(c2cccc(OCc3ccc(Cl)cc3F)n2)CC1` [Compound 104, (E)-3-(2-((4-(6-((4-chloro-2-fluorobenzyl)oxy)pyridin-2-yl)piperidin-1-yl)methyl)-1-methyl-1H-imidazol-5-yl)acrylic acid], the concentration for a half-maximal effect (EC50) is 3.45 nM.

`Cn1c(-c2nn[nH]n2)cnc1CN1CCC(c2cccc(OCc3ccc(Cl)cc3F)n2)CC1` [Compound 105, 2-((4-chloro-2-fluorobenzyl)oxy)-6-(1-((1-methyl-5-(2H-tetrazol-5-yl)-1H-imidazol-2-yl)methyl)piperidin-4-yl)pyridine]: the concentration for a half-maximal effect (EC50) came out at 59.2 nM.

For `COCCn1c(/C=C/C(=O)O)cnc1CN1CCC(c2cccc(OCc3ccc(Cl)cc3F)n2)CC1` [Compound 106, (E)-3-(2-((4-(6-((4-Chloro-2-fluorobenzyl)oxy)pyridin-2-yl)piperidin-1-yl)methyl)-1-(2-methoxyethyl)-1H-imidazol-5-yl)acrylic acid], the EC50 amounted to 0.364 nM.

Consider `O=C(O)CCc1cnc(CN2CCC(c3cccc(OCc4ccc(Cl)cc4F)n3)CC2)n1CC1CCC1` [Compound 107], for which the EC50 is 4.4 nM.

Consider `Cn1c(C2CC2C(=O)O)cnc1CN1CCC(c2cccc(OCc3ccc(Cl)cc3F)n2)CC1` (stereo not drawn) [Compound 108, 2-(2-((4-(6-((4-chloro-2-fluorobenzyl)oxy)pyridin-2-yl)piperidin-1-yl)methyl)-1-methyl-1H-imidazol-5-yl)cyclopropanecarboxylic acid], for which the 50% effective concentration (EC50) came to 28.2 nM.

`Cn1c(/C=C\C(=O)O)cnc1CN1CCC(c2cccc(OCc3ccc(Cl)cc3F)n2)CC1` [Compound 109, (Z)-3-(2-((4-(6-((4-chloro-2-fluorobenzyl)oxy)pyridin-2-yl)piperidin-1-yl)methyl)-1-methyl-1H-imidazol-5-yl)acrylic acid]: the EC50 was 86.4 nM.

For the molecule `C/C(=C\c1cnc(CN2CCC(c3cccc(OCc4ccc(Cl)cc4F)n3)CC2)n1C)C(=O)O` [Compound 110, (E)-3-(2-((4-(6-((4-chloro-2-fluorobenzyl)oxy)pyridin-2-yl)piperidin-1-yl)methyl)-1-methyl-1H-imidazol-5-yl)-2-methylacrylic acid], the EC50 was 5.5 nM.

As to `Cn1c(/C=C/C(=O)O)nnc1CN1CCC(c2cccc(OCc3ccc(Cl)cc3F)n2)CC1` [Compound 112, (E)-3-(5-((4-(6-((4-chloro-2-fluorobenzyl)oxy)pyridin-2-yl)piperidin-1-yl)methyl)-4-methyl-4H-1,2,4-triazol-3-yl)acrylic acid], the EC50 came to 2.01 nM.

As for `COCCn1c(C2CC2C(=O)O)cnc1CN1CCC(c2cccc(OCc3ccc(Cl)cc3F)n2)CC1` (stereo not drawn) [Compound 113], the 50% effective concentration (EC50) is 34.9 nM.

Regarding `O=C(O)C1CC1c1cnc(CN2CCC(c3cccc(OCc4ccc(Cl)cc4F)n3)CC2)n1C[C@@H]1CCO1` (stereo partly drawn) [Compound 114a, 2-(2-((4-(6-((4-chloro-2-fluorobenzyl)oxy)pyridin-2-yl)piperidin-1-yl)methyl)-1-(((S)-oxetan-2-yl)methyl)-1H-imidazol-5-yl)cyclopropane-1-carboxylic acid], the concentration giving a half-maximal response (EC50) was found to be 9.4 nM.

With `C/C(=C\c1cnc(CN2CCC(c3cccc4c3OC[C@@H](c3ccc(Cl)cc3)O4)CC2)n1C[C@@H]1CCO1)C(=O)O` [Compound 115a, (E)-3-(2-((4-((R)-2-(4-chlorophenyl)-2,3-dihydrobenzo[b][1,4]dioxin-5-yl)piperidin-1-yl)methyl)-1-(((S)-oxetan-2-yl)methyl)-1H-imidazol-5-yl)-2-methylacrylic acid], the half-maximal effective concentration (EC50) turned out to be 3.2 nM.

For `O=C(O)/C=C/c1cnc(CN2CCC(c3cccc4c3OC[C@@H](c3ccc(Cl)cc3)O4)CC2)n1C[C@@H]1CCO1` [Compound 116a, (E)-3-(2-((4-((R)-2-(4-Chlorophenyl)-2,3-dihydrobenzo[b][1,4]dioxin-5-yl)piperidin-1-yl)methyl)-1-(((S)-oxetan-2-yl)methyl)-1H-imidazol-5-yl)acrylic acid], the EC50 was found to be 0.71 nM.

For the molecule `Cc1cc(CCC(=O)O)cnc1CN1CCC(c2cccc(OCc3ccc(Cl)cc3F)n2)CC1` [Compound 117], the EC50 is 3300 nM.

On to `O=C(O)CCc1ccc(CN2CCC(c3cccc(OCc4ccc(Cl)cc4F)n3)CC2)nc1` [Compound 118, 3-(6-((4-(6-((4-chloro-2-fluorobenzyl)oxy)pyridin-2-yl)piperidin-1-yl)methyl)pyridin-3-yl)propanoic acid], for which the EC50 is greater than 1000 nM.

On to `O=C(O)COc1ccc(CN2CCC(c3cccc(OCc4ccc(Cl)cc4F)n3)CC2)nc1` [Compound 119, 2-((6-((4-(6-((4-chloro-2-fluorobenzyl)oxy)pyridin-2-yl)piperidin-1-yl)methyl)pyridin-3-yl)oxy)acetic acid], for which the EC50 is 1500 nM.

With `Cc1cc(/C=C/C(=O)O)cnc1CN1CCC(c2cccc(OCc3ccc(Cl)cc3F)n2)CC1` [Compound 120, (E)-3-(6-((4-(6-((4-chloro-2-fluorobenzyl)oxy)pyridin-2-yl)piperidin-1-yl)methyl)-5-methylpyridin-3-yl)acrylic acid], the EC50 is 99 nM.

As to `O=C(O)CCc1ccc(CN2CCC(c3cccc(OCc4ccc(Cl)cc4F)n3)CC2)c(=O)[nH]1` [Compound 121, 3-(5-((4-(6-((4-chloro-2-fluorobenzyl)oxy)pyridin-2-yl)piperidin-1-yl)methyl)-6-oxo-1,6-dihydropyridin-2-yl)propanoic acid], the EC50 was greater than 1000 nM.

For the molecule `CC(C)(Oc1ccc(CN2CCC(c3cccc(OCc4ccc(Cl)cc4F)n3)CC2)nc1)C(=O)O` [Compound 122, 2-((6-((4-(6-((4-chloro-2-fluorobenzyl)oxy)pyridin-2-yl)piperidin-1-yl)methyl)pyridin-3-yl)oxy)-2-methylpropanoic acid], the concentration giving a half-maximal response (EC50) was greater than 1000 nM.

`O=C(O)/C=C/c1ccc(CN2CCC(c3cccc(OCc4ccc(Cl)cc4F)n3)CC2)nc1` [Compound 123, (E)-3-(6-((4-(6-((4-chloro-2-fluorobenzyl)oxy)pyridin-2-yl)piperidin-1-yl)methyl)pyridin-3-yl)acrylic acid]: the EC50 came out at 109 nM.

Turning to `COc1nc(CCC(=O)O)ccc1CN1CCC(c2cccc(OCc3ccc(Cl)cc3F)n2)CC1` [Compound 124, 3-(5-((4-(6-((4-Chloro-2-fluorobenzyl)oxy)pyridin-2-yl)piperidin-1-yl)methyl)-6-methoxypyridin-2-yl)propanoic acid], the EC50 was greater than 1000 nM.

For `CC(Oc1ccc(CN2CCC(c3cccc(OCc4ccc(Cl)cc4F)n3)CC2)nc1)C(=O)O` (stereo not drawn) [Compound 125, 2-((6-((4-(6-((4-chloro-2-fluorobenzyl)oxy)pyridin-2-yl)piperidin-1-yl)methyl)pyridin-3-yl)oxy)propanoic acid], the EC50 was greater than 1000 nM.

In the case of `O=C(O)C1CC1c1ccc(CN2CCC(c3cccc(OCc4ccc(Cl)cc4F)n3)CC2)nc1` (stereo not drawn) [Compound 126, 2-(6-((4-(6-((4-chloro-2-fluorobenzyl)oxy)pyridin-2-yl)piperidin-1-yl)methyl)pyridin-3-yl)cyclopropane-1-carboxylic acid], the EC50 turned out to be 817 nM.

For the molecule `Fc1cc(Cl)ccc1COc1cccc(C2CCN(Cc3ccc(-c4nn[nH]n4)cn3)CC2)n1` [Compound 127, 2-((4-(6-((4-chloro-2-fluorobenzyl)oxy)pyridin-2-yl)piperidin-1-yl)methyl)-5-(2H-tetrazol-5-yl)pyridine], the EC50 came to 147 nM.

For `O=C(O)/C=C/c1cnc(CN2CCC(c3cccc(OCc4ccc(Cl)cc4F)n3)CC2)c(CC2CCCO2)c1` (stereo not drawn) [Compound 128, (E)-3-(6-((4-(6-((4-chloro-2-fluorobenzyl)oxy)pyridin-2-yl)piperidin-1-yl)methyl)-5-((tetrahydrofuran-2-yl)methyl)pyridin-3-yl)acrylic acid], the EC50 was 48.9 nM.

Regarding `Cc1cc(C(=O)O)cnc1CN1CCC(c2cccc(OCc3ccc(Cl)cc3F)n2)CC1` [Compound 129, 6-((4-(6-((4-chloro-2-fluorobenzyl)oxy)pyridin-2-yl)piperidin-1-yl)methyl)-5-methylnicotinic acid], the EC50 was found to be 1500 nM.
